From patent US20260174875A1 (Novo Nordisk A/S, priority 2023, published 2026)
Where two headings read alike, the source gives them in different places. Numbered stars: 1 amine (or outer) side, 2 acyl side, 3 side chain; on linkers, the order of the positions; unused ones are H or OH. Square brackets hold non-standard residues; d marks the D form. Side chains are listed from the residue outwards. * marks the point of attachment. C18 diacid = O=C(O)CCCCCCCCCCCCCCCCC(=O)*; C16 diacid = O=C(O)CCCCCCCCCCCCCCC(=O)*; γGlu = O=C(O)[C@H](CCC(=O)[*:2])N[*:1]; AEEA = NCCOCCOCC(=O)O; Aib = CC(C)(N)C(=O)O

Legend:
[1] = target: T1, human GIP receptor (hGIPR) (Homo sapiens, UniProt P48546); assay: GIP receptor assay, method A (CRE-luciferase reporter, BHK cells); assay type: cell-based
T1 construct: expressed in transfected cells
T1 sequence (P48546 22-466): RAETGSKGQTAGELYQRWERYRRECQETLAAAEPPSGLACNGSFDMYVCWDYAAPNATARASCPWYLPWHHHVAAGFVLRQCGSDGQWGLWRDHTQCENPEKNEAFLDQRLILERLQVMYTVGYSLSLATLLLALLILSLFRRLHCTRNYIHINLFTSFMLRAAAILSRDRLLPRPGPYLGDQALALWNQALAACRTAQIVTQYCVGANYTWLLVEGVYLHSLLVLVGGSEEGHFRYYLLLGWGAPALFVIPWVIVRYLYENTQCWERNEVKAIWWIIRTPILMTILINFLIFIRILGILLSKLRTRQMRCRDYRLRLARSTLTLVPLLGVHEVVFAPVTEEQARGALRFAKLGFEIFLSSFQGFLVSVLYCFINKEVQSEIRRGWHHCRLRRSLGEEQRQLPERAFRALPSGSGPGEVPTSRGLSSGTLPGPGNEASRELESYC
Outline: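 BHK cells co-expressing hGIPR and a CRE-luciferase reporter were stimulated for 3 h at 37 °C with a 7-point, 10-fold compound titration in duplicate. Buffer was DMEM, 10 mM HEPES, 1% ovalbumin, 0.1% Pluronic F-68, without HSA or with 1% (w/v) HSA. EC50 [pM] came from four-parameter logistic fits of luminescence.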

[2] = target: T2, human amylin receptor (hAMYR3) (Homo sapiens, UniProt O60896+P30988); assay: Amylin receptor assay, method A (CRE-luciferase reporter, BHK cells); assay type: cell-based
T2 construct: host or cells: BHK cells (Hollex-1 line expressing hCTR(a) and CRE-Luc), further transfected with human RAMP3
T2 sequence (P30988 25-474): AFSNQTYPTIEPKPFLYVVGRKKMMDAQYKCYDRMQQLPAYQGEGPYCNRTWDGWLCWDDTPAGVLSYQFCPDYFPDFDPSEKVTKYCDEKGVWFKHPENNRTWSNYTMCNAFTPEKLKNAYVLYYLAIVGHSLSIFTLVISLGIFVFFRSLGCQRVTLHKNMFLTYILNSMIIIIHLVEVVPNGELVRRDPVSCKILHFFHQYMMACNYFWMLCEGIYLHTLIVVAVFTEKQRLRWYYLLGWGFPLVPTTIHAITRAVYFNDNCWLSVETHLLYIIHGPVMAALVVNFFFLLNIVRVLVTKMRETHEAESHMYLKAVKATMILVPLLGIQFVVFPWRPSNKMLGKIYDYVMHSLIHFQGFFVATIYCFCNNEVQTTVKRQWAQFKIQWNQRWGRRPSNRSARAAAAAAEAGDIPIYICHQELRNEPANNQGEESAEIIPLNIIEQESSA
T2 sequence (O60896 24-148): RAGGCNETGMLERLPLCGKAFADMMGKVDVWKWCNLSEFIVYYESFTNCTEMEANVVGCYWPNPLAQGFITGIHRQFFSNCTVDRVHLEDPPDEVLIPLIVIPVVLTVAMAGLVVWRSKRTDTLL

[3] = Chemical stability assessment in formulation (UPLC-UV-MS purity loss at 37° C.); assay type: physicochemical; settings: 8 mM phosphate buffer pH 7.4, 1 mg/mL, 2 weeks
Outline: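 Degradation tracked by UPLC-UV-MS (formic acid/acetonitrile gradient) on samples drawn over 2 weeks at 37° C. Solutions were made at a 1 mg/mL target in 8 mM phosphate, pH 7.4, kept in sealed vials and frozen after sampling.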

[4] = method A, absence of HSA, read-out: hGIPR Potency, no HSA, EC50
[5] = method A, absence of HSA, read-out: hAMYR3 Potency, no HSA, EC50
[6] = hGIPR Potency, 1% HSA, EC50, method A, in the presence of 1% HSA
[7] = hAMYR3 Potency, 1% HSA, EC50, method A, in the presence of 1% HSA
[8] = hGIPR Potency, no HSA, EC50, method A, absence of HSA
[9] = hAMYR3 Potency, no HSA, EC50, method A, absence of HSA

Row | Substance | EC50 [1, 4] [pM] | EC50 [2, 5] [pM] | Purity loss per week at 37° C. [3] [%] | EC50 [1, 6] [pM] | EC50 [2, 7] [pM] | EC50 [1, 8] [pM] | EC50 [2, 9] [pM]
1 | H[Aib]HGTFTSDYSILLEEQAAREFIEWLLAGGPSK([AEEA-AEEA-γGlu-C16 diacid])GEASQLSTAALGRLSAELHRLADLPRTETGSGSP-NH2 [Compound 62] |  |  | 3.0 | 47.2 | 28.8 | 2.26 | 3.35
2 | H[Aib]HGTFTSDYSILLEEQAAREFIEWLLAGGPSSGAGQAPGQAPGASHLSTAQTQRLSAELHRLK([AEEA-AEEA-γGlu-C18 diacid])TLPRTETGSGSP-NH2 [Compound 91] | 3.21 | 2.26 | 2.8 | 9.31 | 28.8 |  | 
3 | Y[Aib]EGTFTSDYSILLEEQAAREFIEWLLAGGPSSGEASHLSTAQTQRLSAK([AEEA-AEEA-γGlu-C18 diacid])LHRLATLPRTETGSGSP-NH2 [Compound 79] | 4.7 | 3.53 | 1.3 | 24.7 | 53.4 |  | 
4 | Y[Aib]EGTFTSDYSILLEEQAAREFIEWLLAGGPSSGAGQAPGQAPGASHLSTAALGRLSAELHK([AEEA-AEEA-γGlu-C18 diacid])LATLPRTETGSGSP-NH2 [Compound 53] | 3.25 | 3.22 | 0.8 | 14.6 | 75.9 |  | 
5 | H[Aib]HGTFTSDYSILLEEQAAREFIEWLLAGGPSK([AEEA-AEEA-γGlu-C16 diacid])GAPPPSGGGEASHLSTAQTARLSAELHRLADLPRTETGSGSP-NH2 [Compound 61] |  |  | 2.0 | 16 | 30.8 | 1.3 | 2.97
6 | H[Aib]HGTFTSDYSILLEEQAAREFIEWLLAGGPSSGAGQAPGQAPGASHLSTAQTQRLSAK([AEEA-AEEA-γGlu-C18 diacid])LHRLATLPRTETGSGSP-NH2 [Compound 78] | 3.49 | 1.83 | 3.5 | 10.4 | 17.1 |  | 

Further lines, with some results ahead:

Row | EC50 [1, 4] [pM] | EC50 [2, 5] [pM] | Purity loss per week at 37° C. [3] [%] | EC50 [1, 6] [pM] | EC50 [2, 7] [pM] | Substance | EC50 [1, 8] [pM] | EC50 [2, 9] [pM]
7 | 1.97 | 4.21 | 0.3 |  |  | Y[Aib]EGTFTSDYSILLEEQAAREFIEWLLAGGPSK([AEEA-AEEA-γGlu-C18 diacid])GEASHLSTAQTARLSAELHELATLPRTETGSGSP-NH2 [Compound 35] |  | 
8 | 1.98 | 3 | 0.2 | 5.85 | 85 | Y[Aib]EGTFTSDYSILLEEQAAREFIEWLLAGGPSSGAGQAPGQAPGASHLSTAQTQRLSAELHRLATLPK([AEEA-AEEA-γGlu-C18 diacid])TETGSGSP-NH2 [Compound 57] |  | 
9 | 2.62 | 6.23 | 5.6 | 59.1 | 55 | H[Aib]HGTFTSDYSILLEEQAAREFIEWLLAGGPSK([AEEA-AEEA-γGlu-C16 diacid])GAPPPSGGGEASELSTAALGRLSAELHELATLPRTETGSGSP-NH2 [Compound 12] |  | 
10 | 2.54 | 2.23 | 2.8 | 8.58 | 66.4 | H[Aib]HGTFTSDYSILLEEQAAREFIEWLLAGGPSSGAGQAPGQAPLASHLSTAQTQRLSAELHK([AEEA-AEEA-γGlu-C18 diacid])LATLPRTETGSGSP-NH2 [Compound 93] |  | 
11 | 3.2 | 5.01 | 3.8 | 356 | 82.2 | H[Aib]HGTFTSDYSILLEEQAAREFIEWLLAGGPSK([AEEA-AEEA-γGlu-C18 diacid])GAPPPSGGGEASELSTAALGRLSAELHELATLPRTETGSGSP-NH2 [Compound 15] |  | 
12 | 2.65 | 2.36 | 0.6 | 8.48 | 44.9 | Y[Aib]EGTFTSDYSILLEEQAAREFIEWLLAGGPSSGAGQAPGQAPGASHLSTAQTQRLSAELHRLK([AEEA-AEEA-γGlu-C18 diacid])TLPRTETGSGSP-NH2 [Compound 56] |  | 
13 | 2.36 | 3.2 | 0.7 | 15.1 | 185 | Y[Aib]EGTFTSDYSILLEEQAAREFIEWLLAGGPSSGEASHLSTAQTQRLSAELHK([AEEA-AEEA-γGlu-C18 diacid])LATLPRTETGSGSP-NH2 [Compound 50] |  | 
